In patent US20260167623A1 (NIKANG THERAPEUTICS, INC., priority 2022, published 2026):

Tests used:
CDK2 [1] = molecular target: T1, CDK2 (Homo sapiens, UniProt P24941); experiment: High-throughput HTRF measurement of cellular endogenous CDK2 level (degradation, DC50/Dmax) in OVCAR3 cells, 6 h; assay type: cell-based; conditions: 6 h compound treatment, HTRF total CDK2, read-out: DC50_OVCAR3_6h
T1 construct: High-Throughput Measurement of Cellular Endogenous CDK2; endogenous in cells; host or cells: OVCAR3
In short: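 DC50 and Dmax were derived by four-parameter logistic fit of the […] TR-FRET ratio, scaled between DMSO (0% degradation) and lysis buffer (100%) controls. The ratio came from an HTRF total-CDK2 sandwich immunoassay on lysates of OVCAR3 cells given 0.03–1,000 nM compound for 6 hours.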

CDK2 [2] = molecular target: T1, CDK2; experiment: Inhibition of CDK2: phospho-Rb (S807/811) HTRF measurement in OVCAR3 cells, 24 h; assay type: cell-based; conditions: 24 h compound treatment, read-out: pRB_OVCAR3_24h
In short: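 IC50 came from a four-parameter fit of DMSO-normalized TR-FRET ratios (665/620 nm) reporting phospho-Rb S807/811. Lysates were taken from OVCAR3 cultures treated 24 h with compound (0.3 to 10,000 nM) and incubated 4 h at room temperature with the antibody pair.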

| SMILES | DC50 (CDK2 [1]) [nM] | IC50 (CDK2 [2]) [nM] |
| --- | --- | --- |
| Cn1nc(N2CCC(=O)NC2=O)c2ccc(C3CCN(CC4(O)CCN(c5cc(S(=O)(=O)N6CCC(Nc7ncc(Cl)cn7)CC6)ccc5C#N)CC4)CC3)cc21 [Example 214, 4-((4-((5-chloropyrimidin-2-yl)amino)piperidin-1-yl)sulfonyl)-2-(4-((4-(3-(2,4-dioxotetrahydropyrimidin-1(2H)-yl)-1-methyl-1H-indazol-6-yl)piperidin-1-yl)methyl)-4-hydroxypiperidin-1-yl)benzonitrile] | 10 to 100 | 1 to 100 |
| C=Cc1cnc(NC2CCN(S(=O)(=O)c3cccc(N4CCC(CN5CCC(c6ccc7c(N8CCC(=O)NC8=O)nn(C)c7c6)CC5)CC4)c3)CC2)nc1 [Example 208, 1-(1-methyl-6-(1-((1-(3-((4-((5-vinylpyrimidin-2-yl)amino)piperidin-1-yl)sulfonyl)phenyl)piperidin-4-yl)methyl)piperidin-4-yl)-1H-indazol-3-yl)dihydropyrimidine-2,4(1H,3H)-dione] | 1 to 10 | 1 to 100 |
| Cn1c(=O)n(C2CCC(=O)NC2=O)c2cccc(C3CCN(Cc4cccc(S(=O)(=O)N5CCC(Nc6ncc(C(F)(F)F)cn6)CC5)c4)CC3)c21 (stereo not shown) [Example 83, 3-(3-methyl-2-oxo-4-(1-(3-((4-((5-(trifluoromethyl)pyrimidin-2-yl)amino)piperidin-1-yl)sulfonyl)benzyl)-piperidin-4-yl)-2,3-dihydro-1H-benzo[d]imidazol-1-yl)piperidine-2,6-dione] | 1 to 10 | 1 to 100 |
| Cn1c(=O)n(C2CCC(=O)NC2=O)c2cccc(C3CCN(CC4CCN(c5cc(S(=O)(=O)N6CCC(Nc7ncc(C(F)(F)F)cn7)CC6)ccc5C#N)CC4)CC3)c21 (stereo not shown) [Example 181, 2-(4-((4-(1-(2,6-dioxopiperidin-3-yl)-3-methyl-2-oxo-2,3-dihydro-1H-benzo[d]imidazol-4-yl)piperidin-1-yl)methyl)piperidin-1-yl)-4-((4-((5-(trifluoromethyl)pyrimidin-2-yl)amino)piperidin-1-yl)sulfonyl)benzonitrile] | 1 to 10 | 1 to 100 |
| Cn1nc(N2CCC(=O)NC2=O)c2ccc(C3CCN(CCc4cccc(S(=O)(=O)N5CCC(Nc6ncc(C(F)(F)F)cn6)CC5)c4)CC3)cc21 [Example 6, 1-(1-methyl-6-(1-(3-((4-((5-(trifluoromethyl)pyrimidin-2-yl)amino)-piperidin-1-yl)sulfonyl)phenethyl)piperidin-4-yl)-1H-indazol-3-yl)dihydropyrimidine-2,4(1H,3H)-dione] | 100 to 1000 | 1 to 100 |

Second part, the molecule after the results:

| DC50 (CDK2 [1]) [nM] | IC50 (CDK2 [2]) [nM] | SMILES |
| --- | --- | --- |
| 1 to 10 | 100 to 500 | Cn1nc(N2CCC(=O)NC2=O)c2ccc(C3CCN(Cc4cccc(S(=O)(=O)N5CCC(Nc6ncc(Br)cn6)CC5)c4)CC3)cc21 [Example 24, 1-(6-(1-(3-((4-((5-bromopyrimidin-2-yl)amino)piperidin-1-yl)sulfonyl)benzyl)-piperidin-4-yl)-1-methyl-1H-indazol-3-yl)dihydropyrimidine-2,4(1H,3H)-dione] |
| 1 to 10 | 1 to 100 | O=C1CCC(N2Cc3cc(N4CCN(Cc5cccc(S(=O)(=O)N6CCC(Nc7ncc(C(F)(F)F)cn7)CC6)c5)CC4)c(F)cc3C2=O)C(=O)N1 (stereo not shown) [Example 42, 3-(6-fluoro-1-oxo-5-(4-(3-((4-((5-(trifluoro-methyl)pyrimidin-2-yl)amino)piperidin-1-yl)sulfonyl)benzyl)piperazin-1-yl)isoindolin-2-yl)piperidine-2,6-dione] |
| 1 to 10 | 1 to 100 | Cn1nc(N2CCC(=O)NC2=O)c2ccc(C3CCN(CC4CCN(c5cccc(S(=O)(=O)N6CCC(Nc7ncc(Cl)cn7)CC6)c5)CC4)CC3)c(Cl)c21 [Example 71, 1-(7-chloro-6-(1-((1-(3-((4-((5-chloro-pyrimidin-2-yl)amino)piperidin-1-yl)sulfonyl)phenyl)piperidin-4-yl)methyl)-piperidin-4-yl)-1-methyl-1H-indazol-3-yl)dihydropyrimidine-2,4(1H,3H)-dione] |
